Reference: paper PMC9028219 (Frontiers in Nutrition, 2022)
Where two headings read alike, the source gives them in different places.

What was measured:
FaDu [1] = assay: NRU anti-proliferative assay; format: cell-based, human
Method: (§1) The cell lines used for the present study were K562 (erythroid leukemia), COLO-205 (colon carcinoma), FaDu (hypopharyngeal carcinoma), MCF-7 (breast ER+ve adenocarcinoma), WRL-68 (hepatocellular carcinoma), A549 (lung carcinoma), and HEK-293 (embryonic kidney). These cell lines were purchased from the National Center for Cell Sciences (NCCS), Pune, India, except FaDu, which Dr. Sarkar endowed from CSIR-Central Drug Research Institute, Lucknow, Uttar Pradesh, India.
(§2) The NRU assay was carried out by Babich and Borenfreund ([29]) method. Similar to the SRB assay, 5 μl NRU dye was added to the treated plate. Then, cells were washed with fixative solution after 3 h of incubation; further, the bound dye was solubilized in a dissolving solution. The absorbance was measured at 540 nm ([29]).

FaDu cells [2] = assay: Mitochondrial membrane potential (Rhodamine 123); format: cell-based, human
Method: (§3) The cell cycle analysis was carried out by the protocol reported by Fatima et al. ([40]). The cell lines were fixed with 70% ethanol. Before analysis, fixed cells were washed at least two times with PBS and PI solution containing RNase A to stain the cells. The samples were run on a flow cytometer within 1 h. Treated FaDu cells were incubated with 10 μM of DCFH-DA dye for 30 min then fluorescence was measured at 485/530 nm of […]. For FACS analysis, treated cells were incubated with 10 μM of DCFH-DA dye for 30 min, and the samples were analyzed within 1 h ([41]). The protocol for the analysis of MMP was similar to that of DCFH-DA except for Rhodamine 123 dye ([41]). The experiment was also carried out as per the method reported in Annexin-V-FITC apoptosis detection kit I (BD Pharmingen^TM, Catalog No. 556547). For the assay, 1 × 10^6 cells were grown in 6 well plates and treatment was given 24 h. The next day, cells were washed with cold PBS, and the pellet was resuspended in 100 μl (1X binding) buffer and left for 15 min followed by incubation with a dual fluorescent dye (5 μl FITC and 5 μl PI) for 10 min. The cell suspension was maintained upto 500 μl from the 1X binding buffer. The stained cells were analyzed by flow cytometer within 1 h ([42]).

Cyclooxygenase-2 (COX-2) = Cyclooxygenase-2 (COX-2) (Homo sapiens, UniProt P35354); assay: COX-2 activity assay in cell lysate; conditions: A549, 100 μM
Method: Protein was estimated by nanodrop before being used for the enzyme assays.
Cyclooxygenase-2 (COX-2) activity was measured as reported by Kulmaczand Lands ([33]). The reaction cocktail consists of Tris-HCl buffer (100 mM and pH 8.0), EDTA (3 μM), hematin (15 μM), and cell lysate. After incubation, arachidonic acid (AA) and N,N,N′,N′-tetra methyl-p-phenylenediamine (TMPD) was added to 96 well plates to initiate the reaction. The reaction mixture was immediately auto mixed using the Multiscan Go of Thermo Scientific spectrophotometer, and absorbance was measured at 590 nm ([33]). The enzyme inhibition was calculated concerning control. […] Approximately 40 μM of AA was mixed to initiate the reaction, and the plate was kept for 4 min at room temperature. The reaction was terminated by adding an equal ratio of reagent 1 (4.5 mM FeSo4 in HCl) and reagent 2 (3% NH4SCN). The absorbance was taken at 480 nm using a spectrophotometer ([34]). The enzyme inhibition was compared concerning control.

FaDu cells [3] = assay: Cell cycle analysis (PI, flow cytometer); format: cell-based, human; conditions: PI staining
Method: as §3

FaDu [4] = assay: MTT anti-proliferative assay; format: cell-based; conditions: Homo sapiens
Method: as §1
(§4) The MTT assay was performed following the protocol as Mosmann ([30]) determined. […] The next day, 10 μl (500 μg/ml) of MTT dye was added to each well of the plate and further incubated for 4 h. After that, the formazan crystal was dissolved in 100 μl DMSO and absorbance was measured at 570 nm. The SRB, NRU, and MTT assays were calculated using percentage cytotoxicity concerning control ([30]).

resistant species = conditions: against the resistant species; ref [8], [9]; cited from earlier work
COLO-205 = assay: Anti-proliferative activity (SRB, MTT, NRU assays); format: cell-based, human; conditions: COLO-205, higher tested concentration 100 μM
Method: as §1
(§5) The SRB assay was carried out by following the method reported by Skehan et al. ([27]) with a slight modification ([28]). In 96 well plates, approximately ~2 ×10^3 cells per well were seeded. […] Approximately 20% of TCA was added in treated plates to precipitate cellular proteins, followed by washing cells with tap water and adding 10 μl SRB dye (0.4%) in each well of the plate. Then, the plate was washed with 1% acetic acid to remove the unbound dye. The bound dye was dissolved in 200 μl tris base (10 mM). The absorbance was finally measured at 515 nm using a spectrophotometer (Multiskan^TM Go SkanIt Software, version 4.0, Thermo Fisher Scientific, Waltham, MA, USA).
as §2, §4

[5] = tested on: HEK-293 (normal) cell line; assay: Anti-proliferative activity (SRB, MTT, NRU assays); format: cell-based, human
Method: as §1, §5, §2, §4

WRL-68 = assay: Anti-proliferative activity (SRB, MTT, NRU assays); format: cell-based, human; conditions: WRL-68, higher tested concentration 100 μM
Method: as §1, §5, §2, §4

MCF-7 = assay: Anti-proliferative activity (SRB, MTT, NRU assays); format: cell-based, human; conditions: MCF-7, higher tested concentration 100 μM
Method: as §1, §5, §2, §4

[6] = tested on: Sarcoma-180 (S-180) tumor; conditions: for Tumor growth inhibition: days 1-9, evaluated day 12; for Tumor cell count Mean ± S.E / Tumor volume Mean ± S.E / Tumor weight Mean ± S.E: days 1-9, evaluated day 12, n = 5
Method: The S-180 cells were collected from Swiss albino mice harboring 8–10 days old cells from the peritoneal cavity. On day 0, the S-180 cells (1 × 10^7 cells/ml) were injected intra-peritoneal in non-inbred female Swiss albino mice (22–25 g, 8–10 weeks old) selected for the experiment. The next day (Day 1), the animals were randomized and divided into three treatment groups, one positive control group and one vehicle control group containing 5 animals in each group. […] The fourth group was given 5-fluorouracil; positive control at a dose of 20 mg/kg bw i.p. from day 1–9, and the fifth group (control) was administered normal saline (0.2 ml i.p.) for 9 days. On day 12, the animals were sacrificed, and the fluid was collected from each mouse's peritoneal cavity to evaluate tumor growth ([43]). The tumor growth inhibition was calculated using the following formula.
Tumor Growth Inhibition(%)=(Number of tumor cells in control group-Number of tumor cells in the test group)/Number of tumor cells in the control group×100

FaDu cells [7] = assay: ROS production (DCFH-DA); format: cell-based, human
Method: as §3

FaDu [8] = assay: SRB anti-proliferative assay; format: cell-based; conditions: Homo sapiens, 72 h
Method: as §1, §5

K562 = assay: SRB anti-proliferative assay; format: cell-based; conditions: Homo sapiens, K562, 72 h
Method: as §1, §5

Cyclooxygenase-2 (COX-2), sequence (P35354 18-604): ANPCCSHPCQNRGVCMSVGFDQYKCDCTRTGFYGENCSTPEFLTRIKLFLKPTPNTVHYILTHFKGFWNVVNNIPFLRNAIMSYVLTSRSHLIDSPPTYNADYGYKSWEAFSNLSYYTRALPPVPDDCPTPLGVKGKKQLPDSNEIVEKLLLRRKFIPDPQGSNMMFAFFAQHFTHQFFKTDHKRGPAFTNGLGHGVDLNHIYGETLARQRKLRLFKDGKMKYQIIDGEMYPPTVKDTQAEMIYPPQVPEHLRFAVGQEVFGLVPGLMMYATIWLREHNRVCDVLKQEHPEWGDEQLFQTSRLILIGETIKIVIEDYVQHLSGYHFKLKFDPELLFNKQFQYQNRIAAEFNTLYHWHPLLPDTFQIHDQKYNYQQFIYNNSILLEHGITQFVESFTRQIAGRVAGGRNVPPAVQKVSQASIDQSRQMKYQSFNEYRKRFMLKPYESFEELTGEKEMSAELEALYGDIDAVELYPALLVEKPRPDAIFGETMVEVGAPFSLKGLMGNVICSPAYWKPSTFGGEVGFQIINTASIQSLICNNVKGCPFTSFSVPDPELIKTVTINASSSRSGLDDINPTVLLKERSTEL

For `Cc1ccc(C(C)C)cc1O` [carvacrol, 5-isopropyl-2-methyl phenol], the growth inhibition (FaDu [1]) was 35.32 ± 2.85%, the mitochondrial membrane potential (FaDu cells [2]) was “diminishes the membrane potential of the FaDu cell line at the tested concentrations” and the “reduction of COX-2 activity” value (Cyclooxygenase-2 (COX-2)) was 13.33%. The “cell cycle phase arrest” value (FaDu cells [3]) was “arrests the G2/M phase of FaDu cells in a dose-dependent manner”, the sub-diploid population (FaDu cells [3]) was “raises the sub-diploid population number” and the IC50 (FaDu [4]) was 9.61 ± 0.05 µM. For the same compound, the “minimum inhibitory concentration (MIC)” value (resistant species) was 0.015–0.03 % v/v, the reduction of proliferation (COLO-205) was “up to 24%” and the cell growth inhibition [5] was “approximately 25%”. The reduction of proliferation (WRL-68) was “up to 24%”, the reduction of proliferation (MCF-7) was “up to 24%” and the Tumor growth inhibition ([6]; 25 mg/kg bw i.p.) was 28.12%. The “Tumor cell count Mean ± S.E” value ([6]; 25 mg/kg bw i.p.) was 57.5 ± 8.72 1 × 10^7, the “Tumor volume Mean ± S.E” value ([6]; 25 mg/kg bw i.p.) was 3.5 ± 0.54 mL and the “Tumor weight Mean ± S.E” value ([6]; 25 mg/kg bw i.p.) was 3.36 ± 0.60 g. For the same compound, the Tumor growth inhibition ([6]; 50 mg/kg bw i.p.) was 55.94%, the “Tumor cell count Mean ± S.E” value ([6]; 50 mg/kg bw i.p.) was 35.25 ± 4.68^** 1 × 10^7 and the “Tumor volume Mean ± S.E” value ([6]; 50 mg/kg bw i.p.) was 1.57 ± 0.25 mL. For the same compound, the “Tumor weight Mean ± S.E” value ([6]; 50 mg/kg bw i.p.) was 1.39 ± 0.33 g, the Tumor growth inhibition ([6]; 75 mg/kg bw i.p.) was 72.62% and the “Tumor volume Mean ± S.E” value ([6]; 75 mg/kg bw i.p.) was 1.16 ± 0.34 mL. The “Tumor weight Mean ± S.E” value ([6]; 75 mg/kg bw i.p.) was 1.10 ± 0.41 g, the “effect on mice bw” value ([6]; 75, 50 and 25 mg/kg bw i.p.) was “no adverse effect” and the mortality ([6]; during the experimental period) was “no mortality was noticed”. For the same compound, the ROS production (FaDu cells [7]) was “increases the ROS production in FaDu cell line in a dose-dependent manner; however, the effect was non-significant”, the IC50 (FaDu [8]) was 42 ± 11.4 µM and the IC50 (K562) was 81.3 ± 11.8 µM.
